Measurements taken from article PMC5218480 (PLoS ONE, 2017).

Tested on: MV-4-11 cells
Test: Gene expression microarray analysis (Affymetrix PrimeView) and GSEA
Type: cell-based, human
Set-up: RFU PODN (11730768_x_at) / Fold change /veh PODN (11730768_x_at) / RFU LINC00158 (11744669_a_at) / Fold change /veh LINC00158 (11744669_a_at) / RFU DUSP10 (11751237_a_at) / Fold change /veh DUSP10 (11751237_a_at) / RFU ID3 (11757404_x_at) / Fold change /veh ID3 (11757404_x_at) / RFU PLEKHG5 (11737974_s_at) / Fold change /veh PLEKHG5 (11737974_s_at) / RFU LRRC4B (11730491_at) / Fold change /veh LRRC4B (11730491_at) / RFU GIMAP4 (11747438_a_at) / Fold change /veh GIMAP4 (11747438_a_at) / RFU KRT8 (11758183_x_at) / Fold change /veh KRT8 (11758183_x_at) / RFU CNN1 (11734310_a_at) / Fold change /veh CNN1 (11734310_a_at) / RFU VPS37D (11726825_at) / Fold change /veh VPS37D (11726825_at) / RFU C10orf10 (11716522_x_at) / Fold change /veh C10orf10 (11716522_x_at) / RFU KIR2DL2 /// KIR2DL4 /// KIR2DL5A /// KIR2DL5B /// KIR2DS1 /// KIR2DS2 /// KIR2DS3 /// KIR2DS4 /// KIR3DL3 /// KIR3DL3 /// KIR3DS1 (11738374_at) / Fold change /veh KIR2DL2 /// KIR2DL4 /// KIR2DL5A /// KIR2DL5B /// KIR2DS1 /// KIR2DS2 /// KIR2DS3 /// KIR2DS4 /// KIR3DL3 /// KIR3DL3 /// KIR3DS1 (11738374_at) / RFU C1QL1 (11718748_at) / Fold change /veh C1QL1 (11718748_at) / RFU TMPRSS4 (11747572_a_at) / Fold change /veh TMPRSS4 (11747572_a_at) / RFU HAMP (11756126_x_at) / Fold change /veh HAMP (11756126_x_at) / RFU RNFT2 (11725882_a_at) / Fold change /veh RNFT2 (11725882_a_at) / RFU NR4A2 (11747474_a_at) / Fold change /veh NR4A2 (11747474_a_at) / RFU ABCC12 (11746883_a_at) / Fold change /veh ABCC12 (11746883_a_at) / RFU TMEM136 (11760407_x_at) / Fold change /veh TMEM136 (11760407_x_at) / RFU CLDN22 /// WWC2 (11732394_at) / Fold change /veh CLDN22 /// WWC2 (11732394_at) / RFU HLA-DPB1 (11760878_x_at) / Fold change /veh HLA-DPB1 (11760878_x_at) / RFU SPINT1 (11716480_a_at) / Fold change /veh SPINT1 (11716480_a_at) / RFU GAP43 (11754022_s_at) / Fold change /veh GAP43 (11754022_s_at) / RFU A4GNT (11735810_at) / Fold change /veh A4GNT (11735810_at) / RFU PRB3 (11715151_x_at) / Fold change /veh PRB3 (11715151_x_at) / RFU TUBB4B (11761932_at) / Fold change /veh TUBB4B (11761932_at) / RFU CAPN14 (11732068_a_at) / Fold change /veh CAPN14 (11732068_a_at) / RFU TMCC2 (11721928_a_at) / Fold change /veh TMCC2 (11721928_a_at) / RFU IRGQ (11745062_a_at) / Fold change /veh IRGQ (11745062_a_at) / RFU FAM174B (11720279_a_at) / Fold change /veh FAM174B (11720279_a_at) / RFU TMPRSS4 (11748680_a_at) / Fold change /veh TMPRSS4 (11748680_a_at) / RFU FAM212B (11763350_a_at) / Fold change /veh FAM212B (11763350_a_at) / RFU PLEKHG5 (11743358_a_at) / Fold change /veh PLEKHG5 (11743358_a_at) / RFU ZSCAN30 (11745921_a_at) / Fold change /veh ZSCAN30 (11745921_a_at) / RFU CMKLR1 (11741424_a_at) / Fold change /veh CMKLR1 (11741424_a_at) / RFU LOC101060620 /// MAPK8IP1 (11723275_at) / Fold change /veh LOC101060620 /// MAPK8IP1 (11723275_at) / RFU SPTSSB (11747773_x_at) / Fold change /veh SPTSSB (11747773_x_at) / RFU PRSS12 (11739890_at) / Fold change /veh PRSS12 (11739890_at) / RFU BIN1 (11741810_x_at) / Fold change /veh BIN1 (11741810_x_at) / RFU WNT11 (11732464_a_at) / Fold change /veh WNT11 (11732464_a_at) / RFU C10orf10 (11716521_a_at) / Fold change /veh C10orf10 (11716521_a_at) / RFU C5orf56 (11738089_at) / Fold change /veh C5orf56 (11738089_at) / RFU CYB561 (11721691_x_at) / Fold change /veh CYB561 (11721691_x_at) / RFU ANKRD19P (11752326_a_at) / Fold change /veh ANKRD19P (11752326_a_at) / RFU OR2T12 /// OR2T33 /// OR2T8 (11738714_s_at) / Fold change /veh OR2T12 /// OR2T33 /// OR2T8 (11738714_s_at) / RFU VCAN (11748164_a_at) / Fold change /veh VCAN (11748164_a_at) / RFU JSRP1 (11732532_at) / Fold change /veh JSRP1 (11732532_at) / RFU KRTAP10-11 (11738290_x_at) / Fold change /veh KRTAP10-11 (11738290_x_at) / RFU MYO3A (11730013_a_at) / Fold change /veh MYO3A (11730013_a_at) / RFU EBF3 (11725865_a_at) / Fold change /veh EBF3 (11725865_a_at) / RFU CAMK2N1 (11719241_x_at) / Fold change /veh CAMK2N1 (11719241_x_at) / RFU C5orf56 (11738088_a_at) / Fold change /veh C5orf56 (11738088_a_at) / RFU OLFML3 (11715873_a_at) / Fold change /veh OLFML3 (11715873_a_at) / RFU LOC100653217 /// NTM (11731650_a_at) / Fold change /veh LOC100653217 /// NTM (11731650_a_at) / RFU MAPK11 (11762145_a_at) / Fold change /veh MAPK11 (11762145_a_at) / RFU FIZ1 (11724087_x_at) / Fold change /veh FIZ1 (11724087_x_at) / RFU OASL (11726364_x_at) / Fold change /veh OASL (11726364_x_at) / RFU SOX15 (11748057_x_at) / Fold change /veh SOX15 (11748057_x_at) / RFU CD79A (11719716_a_at) / Fold change /veh CD79A (11719716_a_at) / RFU HIST1H1D (11736915_at) / Fold change /veh HIST1H1D (11736915_at) / RFU CASKIN2 (11723855_a_at) / Fold change /veh CASKIN2 (11723855_a_at) / RFU LOC730098 (11760151_x_at) / Fold change /veh LOC730098 (11760151_x_at) / RFU OR4N2 (11742367_at) / Fold change /veh OR4N2 (11742367_at) / RFU PRRT2 (11749266_a_at) / Fold change /veh PRRT2 (11749266_a_at) / RFU SNX32 (11753110_a_at) / Fold change /veh SNX32 (11753110_a_at) / RFU CDHR5 (11726645_a_at) / Fold change /veh CDHR5 (11726645_a_at) / RFU RCAN1 (11760418_a_at) / Fold change /veh RCAN1 (11760418_a_at) / RFU FAM167A (11723789_a_at) / Fold change /veh FAM167A (11723789_a_at) / RFU FAM26E (11764081_at) / Fold change /veh FAM26E (11764081_at) / RFU ISYNA1 (11749810_s_at) / Fold change /veh ISYNA1 (11749810_s_at) / RFU ACY1 (11761880_at) / Fold change /veh ACY1 (11761880_at) / RFU 11764098_at / Fold change /veh 11764098_at / RFU SAMD14 (11745864_x_at) / Fold change /veh SAMD14 (11745864_x_at) / RFU NPB (11741838_a_at) / Fold change /veh NPB (11741838_a_at) / RFU TMPRSS6 (11731388_a_at) / Fold change /veh TMPRSS6 (11731388_a_at) / RFU KRTAP10-2 (11738614_at) / Fold change /veh KRTAP10-2 (11738614_at) / RFU ARHGAP8 /// PRR5-ARHGAP8 (11727945_x_at) / Fold change /veh ARHGAP8 /// PRR5-ARHGAP8 (11727945_x_at) / RFU KRTAP5-7 /// NADSYN1 (11734609_at) / Fold change /veh KRTAP5-7 /// NADSYN1 (11734609_at) / RFU RASL12 (11751679_a_at) / Fold change /veh RASL12 (11751679_a_at) / RFU CDKN2B (11736163_a_at) / Fold change /veh CDKN2B (11736163_a_at) / RFU PRF1 (11729649_at) / Fold change /veh PRF1 (11729649_at) / RFU, ZNF638 /// ZNF638-IT1 / Fold change vs veh, ZNF638 /// ZNF638-IT1 / RFU, PANK3 / Fold change vs veh, PANK3 / RFU, SH3YL1 / Fold change vs veh, SH3YL1 / RFU, ZEB2 / Fold change vs veh, ZEB2 / RFU, NRIP1 / Fold change vs veh, NRIP1 / RFU, PTTG1IP / Fold change vs veh, PTTG1IP / RFU, CAPN2 / Fold change vs veh, CAPN2 / RFU, MED14 / Fold change vs veh, MED14 / RFU, SNORA58 / Fold change vs veh, SNORA58 / RFU, C1orf63 / Fold change vs veh, C1orf63 / RFU, LRRFIP1 / Fold change vs veh, LRRFIP1 / RFU, NDUFAF7 / Fold change vs veh, NDUFAF7 / RFU, SLC12A2 / Fold change vs veh, SLC12A2 / RFU, IBTK / Fold change vs veh, IBTK / RFU, ESF1 / Fold change vs veh, ESF1 / Fold change vs veh, TMEM50B / RFU, TAOK1 / Fold change vs veh, TAOK1 / RFU, ACBD3 / Fold change vs veh, ACBD3 / RFU, TMA16 / Fold change vs veh, TMA16 / RFU, RWDD3 / Fold change vs veh, RWDD3 / RFU, BCAT1 / Fold change vs veh, BCAT1 / RFU, EDEM3 / Fold change vs veh, EDEM3 / RFU, TMEM33 / Fold change vs veh, TMEM33 / RFU, WDR75 / Fold change vs veh, WDR75 / RFU, AHCTF1 / Fold change vs veh, AHCTF1 / RFU, TFRC / Fold change vs veh, TFRC / RFU, ZDHHC17 / Fold change vs veh, ZDHHC17 / RFU, NOM1 / Fold change vs veh, NOM1 / RFU, ARL8B / Fold change vs veh, ARL8B / RFU, ZBTB11 / Fold change vs veh, ZBTB11 / RFU, TAMM41 / Fold change vs veh, TAMM41 / RFU, KIAA1704 /// LOC100996395 / Fold change vs veh, KIAA1704 /// LOC100996395 / RFU, ING1 / Fold change vs veh, ING1 / RFU, TRMT61B / Fold change vs veh, TRMT61B / RFU, FUBP3 / Fold change vs veh, FUBP3 / RFU, TP53 / Fold change vs veh, TP53 / RFU, TNKS2 / Fold change vs veh, TNKS2 / RFU, ZFP14 / Fold change vs veh, ZFP14 / RFU, ACTR2 / Fold change vs veh, ACTR2 / RFU, PPP3R1 / Fold change vs veh, PPP3R1 / RFU, PIK3R1 / Fold change vs veh, PIK3R1 / RFU, HNRNPA1 / Fold change vs veh, HNRNPA1 / RFU, RNF170 / Fold change vs veh, RNF170 / RFU, ZNF28 / Fold change vs veh, ZNF28 / RFU, RNGTT / Fold change vs veh, RNGTT / RFU, OGT / Fold change vs veh, OGT / RFU, BRD1 / Fold change vs veh, BRD1 / RFU, MARS / Fold change vs veh, MARS / RFU, ZNF655 / Fold change vs veh, ZNF655 / RFU, FAHD1 / Fold change vs veh, FAHD1 / RFU, BDP1 / Fold change vs veh, BDP1 / RFU, LRRCC1 / Fold change vs veh, LRRCC1 / RFU, ARID1A / Fold change vs veh, ARID1A / RFU, ZNF146 / Fold change vs veh, ZNF146 / RFU, ZNF330 / Fold change vs veh, ZNF330 / RFU, GPN3 / Fold change vs veh, GPN3 / RFU, C9orf123 / Fold change vs veh, C9orf123 / RFU, N4BP2L2 / Fold change vs veh, N4BP2L2 / RFU, ARFIP1 / Fold change vs veh, ARFIP1 / RFU, FAM179B / Fold change vs veh, FAM179B / RFU, BCL10 / Fold change vs veh, BCL10 / RFU, UHRF1BP1L / Fold change vs veh, UHRF1BP1L / RFU, BET1 / Fold change vs veh, BET1 / RFU, CNOT2 / Fold change vs veh, CNOT2 / RFU, ZNF268 / Fold change vs veh, ZNF268 / Fold change vs veh, ZNF507 / RFU, DGCR2 / Fold change vs veh, DGCR2 / RFU, WDSUB1 / Fold change vs veh, WDSUB1 / Fold change vs veh, HSP90B1 /// MIR3652 / RFU, ADSS / Fold change vs veh, ADSS / RFU, GK / Fold change vs veh, GK / RFU, ZNF148 / Fold change vs veh, ZNF148 / RFU, TAF9 / Fold change vs veh, TAF9 / RFU, SLC1A5 / Fold change vs veh, SLC1A5 / RFU, SLMO2 / Fold change vs veh, SLMO2 / RFU, ABCC4 / Fold change vs veh, ABCC4 / RFU, LOC101060439 /// RAP1B / Fold change vs veh, LOC101060439 /// RAP1B / RFU, RFX7 / Fold change vs veh, RFX7 / RFU, GTPBP10 / Fold change vs veh, GTPBP10 / RFU, CNEP1R1 / Fold change vs veh, CNEP1R1 / RFU, BIVM-ERCC5 /// ERCC5 / Fold change vs veh, BIVM-ERCC5 /// ERCC5 / RFU, ILF3 / Fold change vs veh, ILF3 / RFU 11762660_at / Fold change /veh 11762660_at / RFU VCAN (11757783_s_at) / Fold change /veh VCAN (11757783_s_at) / RFU DDX43 (11728927_at) / Fold change /veh DDX43 (11728927_at) / RFU KRT8 (11758188_x_at) / Fold change /veh KRT8 (11758188_x_at) / RFU NKD1 (11759106_at) / Fold change /veh NKD1 (11759106_at) / RFU SRD5A1 (11742802_a_at) / Fold change /veh SRD5A1 (11742802_a_at) / RFU TPSAB1 /// TPSB2 (11721975_s_at) / Fold change /veh TPSAB1 /// TPSB2 (11721975_s_at) / RFU GSTM3 (11746129_a_at) / Fold change /veh GSTM3 (11746129_a_at) / RFU IL23R (11737362_x_at) / Fold change /veh IL23R (11737362_x_at) / RFU TMEM51 (11727254_a_at) / Fold change /veh TMEM51 (11727254_a_at) / RFU PIWIL2 (11732686_x_at) / Fold change /veh PIWIL2 (11732686_x_at) / RFU ORM1 (11744905_x_at) / Fold change /veh ORM1 (11744905_x_at) / RFU CCDC152 (11743942_at) / Fold change /veh CCDC152 (11743942_at) / RFU ECM1 (11717891_a_at) / Fold change /veh ECM1 (11717891_a_at) / RFU IL23R (11748794_a_at) / Fold change /veh IL23R (11748794_a_at) / RFU TNFAIP8L3 (11732012_x_at) / Fold change /veh TNFAIP8L3 (11732012_x_at) / RFU MBOAT4 (11741988_at) / Fold change /veh MBOAT4 (11741988_at) / RFU 11764193_at / Fold change /veh 11764193_at / RFU TMEM53 (11763286_at) / Fold change /veh TMEM53 (11763286_at) / RFU MAGEB2 (11727129_at) / Fold change /veh MAGEB2 (11727129_at) / RFU TMEM200A (11744735_a_at) / Fold change /veh TMEM200A (11744735_a_at) / RFU CCDC152 (11751479_a_at) / Fold change /veh CCDC152 (11751479_a_at) / RFU FAM211A (11726209_a_at) / Fold change /veh FAM211A (11726209_a_at) / RFU RGS16 (11746705_a_at) / Fold change /veh RGS16 (11746705_a_at) / RFU VCAN (11755009_s_at) / Fold change /veh VCAN (11755009_s_at) / RFU RHOB (11743442_s_at) / Fold change /veh RHOB (11743442_s_at) / RFU RGS16 (11720943_a_at) / Fold change /veh RGS16 (11720943_a_at) / RFU RGS16 (11720944_at) / Fold change /veh RGS16 (11720944_at) / RFU, VPS4B / Fold change vs veh, VPS4B / RFU, CREB1 / Fold change vs veh, CREB1 / RFU, DNAJC13 / Fold change vs veh, DNAJC13 / RFU, GNAQ / Fold change vs veh, GNAQ / RFU, CDK5R1 / Fold change vs veh, CDK5R1 / RFU, ZRANB3 / Fold change vs veh, ZRANB3 / RFU, CUL4A / Fold change vs veh, CUL4A / RFU, CCNY / Fold change vs veh, CCNY / RFU, UFL1 / Fold change vs veh, UFL1 / RFU, COG3 / Fold change vs veh, COG3 / RFU, DIAPH2 / Fold change vs veh, DIAPH2 / RFU, SKA2 / Fold change vs veh, SKA2 / RFU, AFF3 / Fold change vs veh, AFF3 / RFU, LMF1 / Fold change vs veh, LMF1 / RFU, IPO11 / Fold change vs veh, IPO11 / RFU, DFFB / Fold change vs veh, DFFB / RFU, FOXP1 / Fold change vs veh, FOXP1 / RFU, CARD8 / Fold change vs veh, CARD8 / RFU, STRN3 / Fold change vs veh, STRN3 / RFU, ADK / Fold change vs veh, ADK / RFU, RASSF2 / Fold change vs veh, RASSF2 / RFU, WIPF1 / Fold change vs veh, WIPF1 / RFU, LARP1B / Fold change vs veh, LARP1B / RFU, RASA1 / Fold change vs veh, RASA1 / RFU, RB1 / Fold change vs veh, RB1 / RFU, PPFIA1 / Fold change vs veh, PPFIA1 / RFU, MAT2A / Fold change vs veh, MAT2A / RFU, CCT5 / Fold change vs veh, CCT5 / RFU, WDR92 / Fold change vs veh, WDR92 / RFU, CUX1 / Fold change vs veh, CUX1 / RFU, TTC7A / Fold change vs veh, TTC7A / RFU, TMEM135 / Fold change vs veh, TMEM135 / RFU, DEPTOR / Fold change vs veh, DEPTOR / RFU, CPM / Fold change vs veh, CPM / RFU, DNAJB6 / Fold change vs veh, DNAJB6 / RFU, CACNA2D3 / Fold change vs veh, CACNA2D3 / RFU, DTX4 / Fold change vs veh, DTX4 / RFU, TFCP2 / Fold change vs veh, TFCP2 / RFU, GMCL1 /// GMCL1P1 / Fold change vs veh, GMCL1 /// GMCL1P1 / RFU, AEBP2 / Fold change vs veh, AEBP2 / RFU, SNHG1 /// SNORD22 /// SNORD25 /// SNORD26 /// SNORD27 /// SNORD28 /// SNORD29 /// SNORD31 / Fold change vs veh, SNHG1 /// SNORD22 /// SNORD25 /// SNORD26 /// SNORD27 /// SNORD28 /// SNORD29 /// SNORD31 / Fold change (Aza/veh), C12orf56 (ProbeSet 11735607_a_at) / Fold change (ACY-1035/veh), C12orf56 (ProbeSet 11735607_a_at) / Fold change (Aza/veh), FGFR1OP (ProbeSet 11751329_s_at) / Fold change (ACY-1035/veh), FGFR1OP (ProbeSet 11751329_s_at) / Fold change (Aza/veh), VPS36 (ProbeSet 11739960_a_at) / Fold change (ACY-1035/veh), VPS36 (ProbeSet 11739960_a_at) / RFU SYPL1 (11715823_x_at) / Fold change /veh SYPL1 (11715823_x_at) / RFU IGFBP7 (11715501_s_at) / Fold change /veh IGFBP7 (11715501_s_at) / RFU REEP3 (11722064_at) / Fold change /veh REEP3 (11722064_at) / RFU IGLL1 (11728026_x_at) / Fold change /veh IGLL1 (11728026_x_at): dose or concentration left out as unconfirmed
Details: MV-4-11 cells, 48 hours

`Nc1ncn([C@@H]2O[C@H](CO)[C@@H](O)[C@H]2O)c(=O)n1` [azacitidine] was tested, and the “Fold change /veh PLEKHG5 (11743358_a_at)” value was 1.07.
